{
  "source": "patent CN114848615A",
  "about": "“和厚朴酚小分子自主装纳米粒及制备方法” (Tianjin University, priority 2022, dated 2022)",
  "assay": "SEM/TEM characterisation and appearance/distribution in water",
  "format": "physicochemical",
  "conditions": "in words",
  "data": [
    {"smiles": "C=CCc1ccc(O)c(-c2ccc(O)c(CC=C)c2)c1", "note": "[HK, 和厚朴酚]", "values": [
      {"measurement": "distribution/appearance in water", "result": "形成浑浊的白色浆液"}
    ]}
  ]
}
